The test system of test [1] is mice with alloxan diabetes. The test is described as follows: Blood glucose level in mice with alloxan diabetes (Example 1). The class given is in vivo. To be noted: exenatide 7.5 mcg/kg. As to the method: Diabetes was induced in white mice by a single intraperitoneal administration of alloxan in a dose of 135 mg/kg. […] Control animals received injections of saline solution. By day 31 of the experiment, the levels of blood glucose and cholesterol were measured after an overnight fast. Data are presented as a mean±standard deviation (n=5) of the measured levels of glucose or cholesterol. […] To determine the therapeutic effect of lowering the level of glucose, the following formula was used:
ΔGlucose=Glucosemedication−Glucosecontrol.
(§1) Statistical differences of the obtained results were assessed with the use of Student's t-test.

The subject of test [2] is mice with alloxan diabetes. In words: Blood cholesterol level in mice with alloxan diabetes (Example 1). The format is in vivo. To be noted: exenatide 7.5 mcg/kg. As to the method:
Diabetes was induced in white mice by a single intraperitoneal administration of alloxan in a dose of 135 mg/kg. […] Control animals received injections of saline solution. By day 31 of the experiment, the levels of blood glucose and cholesterol were measured after an overnight fast. Data are presented as a mean±standard deviation (n=5) of the measured levels of glucose or cholesterol. […] To determine the therapeutic effect of lowering the level of glucose, the following formula was used: […]
To determine the therapeutic effect of lowering the level of cholesterol, the following formula was used:
ΔCholesterol=Cholesterolmedication−Cholesterolcontrol.
as §1

[3] abbreviates: day 31, after overnight fast, s.c. twice daily for 30 days, dalargin 8.8 mcg/kg.
The mark [4] stands for this setting: day 31, after overnight fast, s.c. twice daily for 30 days, dalargin 8.8 mcg/kg, mean±SD, n=5.
Where [5] appears, read: dalargin 8.8 mcg/kg s.c. twice daily for 30 days.

Turning to “tirozil-2-alanil-glycil-phenylalanyl-leucil-arginine [Dalargin]”, the “Δ Glucose (Glucose medication − Glucose control)” value in test [1] (setting [3]) is -0.9 mmol/L. In test [1] (setting [4]), this substance returned a Glucose of 10.6 ± 1.3 mmol/L. Besides, in test [1] (setting [5]), the “effect on blood glucose levels after an overnight fast (in words)” value was “inefficient”. Besides, the “Δ Cholesterol (Cholesterol medication − Cholesterol control)” value in test [2] (setting [3]) is -0.27 mmol/L. For the same substance, the Cholesterol in test [2] (setting [4]) came out at 2.34 ± 0.16 mmol/L. For the same substance, the “effect on blood cholesterol after an overnight fast (in words)” value in test [2] (setting [5]) is “inefficient”.

The record behind these values is patent US20100113347A1 (priority 2007, published 2010).
